Where “and” joins values, the source holds several entries; their conditions need not be identical. Equal values may be shown once. Read-outs that look alike come from different tables or passages of the source.
Tests used:
[1] = biological target: T1, Acetylcholinesterase (from electric eel) (Electrophorus electricus, UniProt O42275); assay: Acetylcholinesterase activity, Ellman assay after pre-incubation with inhibitor; format: biochemical; details: 100 μM compound, 60 minutes at 25° C.; read-out: % Activity ± SD (acetylcholinesterase activity relative to enzyme incubated with solvent)
T1 construct: Acetylcholinesterase (from electric eel); purchased Sigma; host or cells: electric eel (natural source)
Experimental: Acetylcholinesterase (from electric eel), butyrylcholinesterase (from horse serum), DTNB, butyrylthiocholine, acetylthiocholine, and BSA were purchased from Sigma. The dialkyl 2-chlorophenyl (and 4-chlorophenyl) phosphates were solubilized in reagent grade methanol.
Cholinesterase activity measurements were performed essentially according to the method of Ellman (Biochemical Pharmacology 7:88-90, 1961). The composition of the assay mixture was 0.1 M sodium phosphate, pH 7.5, 0.033 M DTNB, 0.001 M MgCl2, and 100 μg/mL of BSA containing appropriate amounts of substrate and inhibitor. Each assay was initiated by the addition of substrate and the activity quantified by measuring the formation of the thionitrobenzoate anion at 412 nm at 37° C. Methanol used to solubilize the dialkyl phenyl phosphates [1% (v/v) final concentration] had no inhibitory effect on either enzyme.
Butyrylcholinesterase was pre-incubated at room temperature with inhibitor in the assay cocktail minus substrate for varying periods of time at 25° C. Substrate was then added and the activity measured as described above. The relative rates of enzyme inactivation were determined by plotting enzyme activity versus time of pre-incubation with inhibitor. Results were expressed as the rate constant for the rate of enzyme inactivation. In the case of AcChase, results were expressed as the % of activity remaining relative to the enzyme incubated only with solvents.
The first series of experiments determined the effect of the dialkyl 2-chlorophenyl (and 4-chlorophenyl) phosphates on both AcChase and BuChase. None of the compounds had any inhibitory effect on AcChase (See Table 1). In Table 1, AcChase was incubated with 100 μM of the indicated phenyl phosphate for 60 minutes at 25° C. and then assayed as described above. Results were expressed as the % activity relative to enzyme incubated with solvent ±SD (standard deviation).

[2] = biological target: T2, BuChase (Equus caballus, UniProt P81908); assay: MALDI-TOF of tryptic peptides of inhibitor-treated BuChase
T2 construct: butyrylcholinesterase (from horse serum); purchased Sigma; host or cells: horse serum (natural source)
Experimental: BuChase was incubated with di-n-butyl-2-chlorophenyl phosphate. Excess inhibitor was removed and the enzyme was digested with trypsin. The tryptic peptides were then analyzed by MALDI-TOF. Unmodified peptide containing the active site serine (MW 2198.86) and modified peptide (MW 2390.9060) can be seen. […] Irreversible inhibitors usually covalently modify an enzyme, and inhibition cannot therefore be reversed.

[3] = tested on: chymotrypsin; assay: Chymotrypsin activity (ATEE hydrolysis); format: biochemical; details: 10 μM, 60 minutes at 25° C.
Experimental: The effect of DB2ClPP on the activity of chymotrypsin was assayed. […] was incubated with solvent, 10 μM DB2CPP, or 10 μM PMSF (a known inhibitor of chymotrypsin) for 60 minutes at 25° C. to determine any inhibitory effect of DB2CPP on enzymatic activity. Enzyme activity is given as nmoles of ATEE hydrolyzed per minute at 25° C. Data shown are the mean of three replicates ±SEM. (FIG. 4)

[4] = tested on: Protein Kinase A (PKA); assay: Protein kinase A activity (histone substrate, Pro-Q stain); format: biochemical; details: varying concentrations, 30 minutes on ice, then ATP 30° C. 15 minutes
Experimental: (§1) For protein kinase activity, histone was used as the substrate for protein kinase A (PKA) and glutathione-S-transferase-S6 (GST-S6) for S6K2. Enzyme was pre-incubated with substrate and varying concentrations of inhibitor on ice for 30 minutes. The control sample contained solvent (methanol). ATP was then added to each sample and the cocktail incubated at 30° C. for 15 minutes. Equal amounts of each mixture were fractionated by SDS-PAGE on a 10% acrylamide gel. The gel was fixed in 50% methanol/10% acetic acid, washed with water, and then stained in Pro-Q Stain in the dark for 60 minutes. The gel was then destained, washed, and scanned on a Typhoon Imager (FIG. 5).

[5] = biological target: S6K2 (Homo sapiens, UniProt Q9UBS0); assay: S6K2 activity (GST-S6 substrate, Pro-Q stain); format: biochemical; details: varying concentrations, 30 minutes on ice, then ATP 30° C. 15 minutes
Experimental: as §1

[6] = tested on: hexokinase; assay: Hexokinase activity (NADPH generation); format: biochemical; details: 10 μM, 60 min at 25° C.
Experimental: The effect of DB2ClPP on hexokinase activity was assayed. Hexokinase was incubated with solvent, 10 mM iodoacetamide (a known hexokinase inhibitor), or 10 μM DB2CPP for 60 min at 25° C. Enzyme activity is given as the nmoles of NADPH generated per min at 25° C. Data shown are the mean of three replicates ±SEM. (FIG. 6)

[7] = tested on: porcine umbilical stem cells; format: cell-based; details: increasing concentrations, 48 hours, Neurobasal Medium
Experimental: Porcine umbilical stem cells were cultured in Neurobasal Medium supplemented with B27 (Invitrogen) and antibiotics for various periods of with varying concentrations of di-n-butyl-2-chlorophenyl phosphate. Cells were collected, washed, counted, and analyzed for viability by Trypan Blue staining.

[8] = tested on: porcine umbilical stem cells; format: in vitro ADME
Experimental: In addition, uptake of di-n-butyl-2-chlorophenyl phosphate by porcine umbilical stem cells was measured after 24 and 48 hours of culture (Table 5).

[9] = format: in vivo, male Long-Evans rats; details: rat, intraperitoneal 0.2 mL of 10 mg/mL in DMSO, 30 minutes, brain tissue (1.5 g), GC/MS; one value per animal
Experimental: An animal study using two groups (n=7/group) of male Long-Evans rats (200-225 g, Charles River, Portage, Mich.) was conducted to determine whether DB2ClPP crosses the blood brain barrier. DB2ClPP was dissolved in dimethyl sulfoxide (DMSO). Rats were injected intraperitoneally with either 0.2 mL DMSO (vehicle control) or 0.2 mL of a 10 mg/mL solution of DB2ClPP with DMSO as solvent. Thirty minutes after DB2ClPP treatment, animals were deeply anesthetized with isoflurane and then decapitated. Brains were removed quickly, rinsed in ice cold phosphate buffer saline (pH 7.4) and block dissected and flash frozen in liquid nitrogen and stored at −80° C. until assayed.
The tissue from two animals injected with DB2ClPP were processed as follows: i) brain tissue (1.5 g) was allowed to thaw on ice in a Dounce homogenizer; ii) 10 mL of methylene chloride was added and the tissue extracted with 20 strokes of the loose fitting pestle. The homogenate was clarified by centrifugation and the supernatant extracted three times with methylene chloride using a separatory funnel. The organic phase was collected, pooled, and dried over magnesium sulfate. The eluate was then concentrated down to a volume of approximately 200 μl under nitrogen and analyzed by GC/MS for the presence of the DB2ClPP. A solution of neat DB2ClPP served as control. The DB2ClPP was present in both samples. […]

T1 sequence (O42275 24-633): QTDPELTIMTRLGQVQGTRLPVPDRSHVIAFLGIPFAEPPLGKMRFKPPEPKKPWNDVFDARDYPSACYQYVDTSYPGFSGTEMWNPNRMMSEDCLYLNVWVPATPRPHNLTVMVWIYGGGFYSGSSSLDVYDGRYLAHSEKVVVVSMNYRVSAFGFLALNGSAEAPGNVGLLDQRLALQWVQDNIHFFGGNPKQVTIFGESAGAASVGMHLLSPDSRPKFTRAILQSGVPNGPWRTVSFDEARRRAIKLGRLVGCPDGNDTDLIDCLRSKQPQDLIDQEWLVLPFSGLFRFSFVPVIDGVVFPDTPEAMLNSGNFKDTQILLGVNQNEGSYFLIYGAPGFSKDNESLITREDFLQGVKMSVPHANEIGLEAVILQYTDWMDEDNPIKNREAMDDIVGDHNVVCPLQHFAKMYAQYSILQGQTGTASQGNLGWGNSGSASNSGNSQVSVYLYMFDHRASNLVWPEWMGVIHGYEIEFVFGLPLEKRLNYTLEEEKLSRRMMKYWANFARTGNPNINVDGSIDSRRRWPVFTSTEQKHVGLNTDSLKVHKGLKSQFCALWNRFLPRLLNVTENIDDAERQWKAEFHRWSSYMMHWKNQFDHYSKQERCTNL
Sequence of S6K2 (Q9UBS0 whole entry, looked up): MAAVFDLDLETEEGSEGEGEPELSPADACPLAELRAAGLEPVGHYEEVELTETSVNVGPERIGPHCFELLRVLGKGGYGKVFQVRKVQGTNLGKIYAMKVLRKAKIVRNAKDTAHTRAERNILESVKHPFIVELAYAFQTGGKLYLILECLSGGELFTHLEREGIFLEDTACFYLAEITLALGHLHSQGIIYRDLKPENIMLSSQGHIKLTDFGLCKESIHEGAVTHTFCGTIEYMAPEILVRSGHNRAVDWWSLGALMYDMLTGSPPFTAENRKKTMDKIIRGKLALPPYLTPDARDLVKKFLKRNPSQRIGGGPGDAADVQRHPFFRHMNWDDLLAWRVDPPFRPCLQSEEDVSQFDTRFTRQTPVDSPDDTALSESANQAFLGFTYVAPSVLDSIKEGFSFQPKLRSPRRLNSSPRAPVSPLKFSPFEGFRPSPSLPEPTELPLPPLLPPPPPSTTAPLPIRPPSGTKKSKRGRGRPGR
T2 sequence (P81908 whole entry): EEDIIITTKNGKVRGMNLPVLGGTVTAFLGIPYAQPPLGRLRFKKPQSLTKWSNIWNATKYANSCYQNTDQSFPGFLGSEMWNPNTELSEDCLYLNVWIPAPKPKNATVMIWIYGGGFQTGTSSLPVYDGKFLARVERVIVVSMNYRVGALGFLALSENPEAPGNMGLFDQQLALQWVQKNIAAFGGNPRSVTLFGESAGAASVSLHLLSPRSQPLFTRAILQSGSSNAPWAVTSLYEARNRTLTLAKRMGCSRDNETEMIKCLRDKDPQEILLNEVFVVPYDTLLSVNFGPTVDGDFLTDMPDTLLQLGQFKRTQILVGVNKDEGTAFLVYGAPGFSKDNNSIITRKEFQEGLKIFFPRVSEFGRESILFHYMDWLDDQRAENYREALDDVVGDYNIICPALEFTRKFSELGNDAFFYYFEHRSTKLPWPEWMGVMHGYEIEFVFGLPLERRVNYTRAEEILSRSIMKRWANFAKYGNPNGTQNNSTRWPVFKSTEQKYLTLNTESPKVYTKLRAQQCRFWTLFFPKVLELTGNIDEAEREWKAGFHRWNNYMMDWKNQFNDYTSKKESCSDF

For CCCCOP(=O)(OCCCC)Oc1ccccc1Cl [DB2ClPP, Di-n-butyl 2-chlorophenyl phosphate], the activity at 100 µM [1] was 97.6 ± 0.029%, the “type of inhibition from covalent modification of active site serine peptide (FIG. 12)” value [2] was “likely an irreversible inhibitor” and the “effect on chymotrypsin activity (FIG. 4)” value [3] was “none of the above mentioned enzymes were affected”. For the same compound, the “effect on PKA activity (FIG. 5)” value [4] was “none of the above mentioned enzymes were affected”, the “effect on S6K2 activity (FIG. 5)” value [5] was “none of the above mentioned enzymes were affected” and the “effect on hexokinase activity (FIG. 6)” value [6] was “none of the above mentioned enzymes were affected”. The “effect on mortality of porcine umbilical stem cells (FIG. 7)” value [7] was “did not have any significant effect on mortality”, the “fg DB2Cl-PP/cell (±SEM)” value ([8]; 0 hours) was 2.55 ± 0.011 fg/cell and the “fg DB2Cl-PP/cell (±SEM)” value ([8]; 24 hours) was 11.57 ± 1.02 fg/cell. For the same compound, the “fg DB2Cl-PP/cell (±SEM)” value ([8]; 48 hours) was 13.62 ± 0.003 fg/cell and the “amount of DB2ClPP in brain sample” value [9] was 220 ng and 125 ng.
